We go through 63 molecules from US8551984B2, “Aminopyrimidines as SYK inhibitors” (Merck Sharp & Dohme Corp., priority 2009, dated 2013).

One assay concerns the target recombinant human SYK (GST-hSYK fusion protein) (Homo sapiens, UniProt P43405). Put plainly: biochemical. The settings on record: RHSYK Activity, Table 54A.
Description: Homogeneous Time-Resolved Fluorescence (HTRF) Assay for the Recombinant Human SYK Enzyme:
Consider `Cc1cc(Nc2nccc(C(F)(F)F)n2)cc(-c2cnc(C3(O)CCN(S(=O)(=O)C(C)C)CC3)s2)c1` [Example 54A-1], for which the 50% inhibitory concentration (IC50) was under 100 nM. With `Cc1cc(Nc2nccc(C(F)(F)F)n2)cc(-c2cnc(C3(O)CCN(S(=O)(=O)C(F)(F)F)CC3)s2)c1` [Example 54A-2], the IC50 was under 100 nM. With `Cc1cc(Nc2nccc(C(F)(F)F)n2)cc(-c2cnc(C3(O)CCN(S(=O)(=O)c4cn(C)cn4)CC3)s2)c1` [Example 54A-3], the IC50 was under 100 nM.

For the molecule `CCC(=O)N1CCC(O)(c2ncc(-c3cc(C)cc(Nc4nccc(C(F)(F)F)n4)c3)s2)CC1` [Example 54A-4], the half-maximal inhibitory concentration (IC50) is under 100 nM. In the case of `Cc1cc(Nc2nccc(C(F)(F)F)n2)cc(-c2cnc(C3(O)CCN(C(=O)CO)CC3)s2)c1` [Example 54A-5], the IC50 was under 100 nM.

For the molecule `Cc1cc(Nc2nccc(C(F)(F)F)n2)cc(-c2cnc(C3(O)CCN(C(=O)CC#N)CC3)s2)c1` [Example 54A-6], the IC50 was under 100 nM. On the same count and under the same terms, the same measure for `Cc1cc(Nc2nccc(C(F)(F)F)n2)cc(-c2cnc(C3(O)CCN(C(=O)CN(C)C)CC3)s2)c1` [Example 54A-7]: under 100 nM; for `Cc1cc(Nc2nccc(C(F)(F)F)n2)cc(-c2cnc(C3(O)CCN(C(=O)c4cccnc4)CC3)s2)c1` [Example 54A-8]: under 100 nM; for `Cc1cc(Nc2nccc(C(F)(F)F)n2)cc(-c2cnc(C3(O)CCN(C(=O)c4ccccn4)CC3)s2)c1` [Example 54A-9]: under 100 nM.

`Cc1cc(Nc2nccc(C(F)(F)F)n2)cc(-c2cnc(C3(O)CCN(C(=O)CN4CCCC4=O)CC3)s2)c1` [Example 54A-10]: the IC50 is under 100 nM. For `Cc1cc(Nc2nccc(C(F)(F)F)n2)cc(-c2cnc(C3(O)CCN(C(=O)C4CC4)CC3)s2)c1` [Example 54A-11], the concentration for half-maximal inhibition (IC50) is under 100 nM. As to `Cc1cc(Nc2nccc(C(F)(F)F)n2)cc(-c2cnc(C3(O)CCN(C(=O)NC4CCCCC4)CC3)s2)c1` [Example 54A-12], the half-maximal inhibitory concentration (IC50) was under 100 nM. On the same count and under the same terms, then `Cc1cc(Nc2nccc(C(F)(F)F)n2)cc(-c2cnc(C3(O)CCN(C(=O)NC(C)C)CC3)s2)c1` [Example 54A-13], with under 100 nM; and `CCCNC(=O)N1CCC(O)(c2ncc(-c3cc(C)cc(Nc4nccc(C(F)(F)F)n4)c3)s2)CC1` [Example 54A-14], with under 100 nM; and `Cc1cc(Nc2nccc(C(F)(F)F)n2)cc(-c2cnc(C3(O)CCN(C(=O)N(C)C)CC3)s2)c1` [Example 54A-15], with under 100 nM. Consider `COc1ccnc(Nc2cc(C)cc(-c3cnc(C4(O)CCN(C(=O)NC(=O)N(C)C)CC4)s3)c2)n1` [Example 54A-17], for which the half-inhibitory concentration (IC50) was under 100 nM.

Turning to `COc1ccnc(Nc2cc(C)cc(-c3cnc(C4(O)CCN(C(N)=O)CC4)s3)c2)n1` [Example 54A-19], the IC50 was under 100 nM. For the molecule `COc1ccnc(Nc2cc(C)cc(-c3cnc(C4(O)CCNCC4)s3)c2)n1` [Example 54A-20], the half-maximal inhibitory concentration (IC50) is under 100 nM. Take `Cc1cc(Nc2nccc(C(F)(F)F)n2)cc(-c2cnc(C3(O)CCN(C(=O)[C@@H](C)O)CC3)s2)c1` [Example 54A-21]: the IC50 was under 100 nM. `Cc1cc(Nc2nccc(C(F)(F)F)n2)cc(-c2cnc(C3(O)CCN(C(=O)CCO)CC3)s2)c1` [Example 54A-22]: the 50% inhibitory concentration (IC50) was under 100 nM. Regarding `Cc1cc(Nc2nccc(C(F)(F)F)n2)cc(-c2cnc(C3(O)CCN(C(=O)CCC#N)CC3)s2)c1` [Example 54A-23], the 50% inhibitory concentration (IC50) was under 100 nM. In the case of `Cc1cc(Nc2nccc(C(F)(F)F)n2)cc(-c2cnc(C3(O)CCN(CC(F)(F)F)CC3)s2)c1` [Example 54A-24], the half-inhibitory concentration (IC50) is under 100 nM. As to `Cc1cc(Nc2nccc(C(F)(F)F)n2)cc(-c2cnc(C3(O)CCN(C(=O)CC(N)=O)CC3)s2)c1` [Example 54A-25], the half-maximal inhibitory concentration (IC50) is under 100 nM.

For `Cc1cc(Nc2nccc(C(F)(F)F)n2)cc(-c2cnc(C3(O)CCN(C(=O)CC(C)O)CC3)s2)c1` (stereo not drawn) [Example 54A-27], the IC50 is under 100 nM.

With `Cc1cc(Nc2nccc(C(F)(F)F)n2)cc(-c2cnc(C3(O)CCN(C(=O)c4ncc[nH]4)CC3)s2)c1` [Example 54A-28], the IC50 was under 100 nM. As to `Cc1cc(Nc2nccc(C(F)(F)F)n2)cc(-c2cnc(C3(O)CCN(C(=O)c4c[nH]cn4)CC3)s2)c1` [Example 54A-29], the IC50 is under 100 nM.

The assay is the same for the next values; noted with them: rhSYK Activity, Table 33C.
`Cc1cc(Nc2nccc(C(F)(F)F)n2)cc(-c2cnc(C3(O)C4CCCC3CC(C(=O)O)C4)s2)c1` (stereo not drawn) [Example 33C-3]: the concentration for half-maximal inhibition (IC50) is under 100 nM. Turning to `Cc1cc(Nc2nccc(C(F)(F)F)n2)cc(-c2cnc(C3(O)CC[C@H]4C(C(=O)O)[C@H]43)s2)c1` (stereo partly drawn) [Example 33C-6], the IC50 is under 100 nM. As for `Cc1cc(Nc2nccc(C(F)(F)F)n2)cc(-c2cnc(C3(O)C[C@@H]4C(C(=O)O)[C@@H]4C3)s2)c1` (stereo partly drawn) [Example 33C-9], the IC50 is under 100 nM. On the same count and under the same terms, the same measure for `CCOC(=O)C1[C@H]2CC(O)(c3ncc(-c4cc(C)cc(Nc5nccc(C(F)(F)F)n5)c4)s3)C[C@@H]12` (stereo partly drawn) [Example 33C-11]: under 100 nM.

`Cc1cc(Nc2nccc(C(F)(F)F)n2)cc(-c2cnc(C3(O)CNC3)s2)c1` [Example 33C-13]: the IC50 was under 100 nM. Still for that read-out and setting: then `Cc1cc(Nc2nccc(C(F)(F)F)n2)cc(-c2cnc(C3(O)CCN(c4ncccc4C(=O)O)CC3)s2)c1` [Example 33C-15], with under 100 nM; and `CCOC(=O)c1cccnc1N1CCC(O)(c2ncc(-c3cc(C)cc(Nc4nccc(C(F)(F)F)n4)c3)s2)CC1` [Example 33C-16], with 100 to 1000 nM; and `Cc1cc(Nc2nccc(C)n2)cc(-c2cnc(C3(O)CCC4(CC3)OCCO4)s2)c1` [Example 33C-17], with under 100 nM. Still for that read-out and setting: then `Cc1cc(Nc2nccc(C)n2)cc(-c2cnc(C3(O)CC4CCC3CC4C(=O)O)s2)c1` (stereo not drawn) [Example 33C-18], with under 100 nM.

Still in this assay, the particulars now being: rhSYK Activity, Table 33D.
With `Cc1cc(Nc2nccc(C(F)(F)F)n2)cc(-c2cnc(C(C)(O)CCC(C)(C)C(=O)O)s2)c1` (stereo not drawn) [Example 33D-1], the IC50 was under 100 nM. Take `COC(=O)C(C)(C)CCC(C)(O)c1ncc(-c2cc(C)cc(Nc3nccc(C(F)(F)F)n3)c2)s1` (stereo not drawn) [Example 33D-4]: the 50% inhibitory concentration (IC50) is under 100 nM. As to `Cc1cc(Nc2nccc(C(F)(F)F)n2)cc(-c2cnc(C(C)(O)COC(C)(C)C(=O)O)s2)c1` (stereo not drawn) [Example 33D-7], the IC50 was under 100 nM.

Regarding `COC(=O)C(C)(C)OCC(C)(O)c1ncc(-c2cc(C)cc(Nc3nccc(C(F)(F)F)n3)c2)s1` (stereo not drawn) [Example 33D-8], the 50% inhibitory concentration (IC50) was under 100 nM. For the molecule `Cc1cc(Nc2nccc(C(F)(F)F)n2)cc(-c2cnc(C(C)(O)CC(C)(C)C(=O)O)s2)c1` (stereo not drawn) [Example 33D-9], the half-inhibitory concentration (IC50) is under 100 nM. Consider `Cc1cc(Nc2nccc(C(F)(F)F)n2)cc(-c2cnc(C(C)(O)CCC(=O)O)s2)c1` (stereo not drawn) [Example 33D-10], for which the half-maximal inhibitory concentration (IC50) was under 100 nM. As to `Cc1cc(Nc2nccc(C(F)(F)F)n2)cc(-c2cnc(C(C)(O)c3ccccc3OCC(=O)O)s2)c1` (stereo not drawn) [Example 33D-11], the IC50 was under 100 nM.

`Cc1cc(Nc2nccc(C(F)(F)F)n2)cc(-c2cnc(C(C)(O)c3ccc(OCC(=O)O)cc3)s2)c1` (stereo not drawn) [Example 33D-12]: the half-inhibitory concentration (IC50) was under 100 nM.

Turning to `Cc1cc(Nc2nccc(C(F)(F)F)n2)cc(-c2cnc(C(C)(O)c3ccc(OC(C)C(=O)O)cc3)s2)c1` (stereo not drawn) [Example 33D-13], the IC50 was under 100 nM. Consider `COC(=O)c1ccc(C(C)(O)c2ncc(-c3cc(C)cc(Nc4nccc(C(F)(F)F)n4)c3)s2)cc1` (stereo not drawn) [Example 33D-17], for which the concentration for half-maximal inhibition (IC50) is under 100 nM. The same measure, in the same setting: the same measure for `Cc1cc(Nc2nccc(C(F)(F)F)n2)cc(-c2cnc(C(C)(O)Cc3ccc(C(=O)O)cc3)s2)c1` (stereo not drawn) [Example 33D-18]: under 100 nM; for `Cc1cc(Nc2nccc(C(F)(F)F)n2)cc(-c2cnc(C(C)(O)c3c(C)nn(CCC(=O)O)c3C)s2)c1` (stereo not drawn) [Example 33D-19]: under 100 nM; for `Cc1cc(Nc2nccc(C(F)(F)F)n2)cc(-c2cnc(C(C)(O)c3ccc(C(=O)O)s3)s2)c1` (stereo not drawn) [Example 33D-20]: under 100 nM. Turning to `Cc1cc(Nc2nccc(C(F)(F)F)n2)cc(-c2cnc(C(O)C(C)(C)N3CCC(C(=O)O)CC3)s2)c1` (stereo not drawn) [Example 33D-23], the IC50 is under 100 nM. Same read-out and setting: the same measure for `Cc1cc(Nc2nccc(C(F)(F)F)n2)cc(-c2cnc(C(O)(c3ccc(/C=C/C(=O)O)cc3)C3CC3)s2)c1` (stereo not drawn) [Example 33D-24]: under 100 nM. As for `Cc1cc(Nc2nccc(C(F)(F)F)n2)cc(-c2cnc(C(O)(CCCC(=O)O)c3ccncc3)s2)c1` (stereo not drawn) [Example 33D-25], the concentration for half-maximal inhibition (IC50) was under 100 nM.

Staying with this assay, now noted: rhSYK Activity, Table 36A.
Consider `CCOC(=O)C1CC=C(c2ncc(-c3cccc(Nc4nccc(C(F)(F)F)n4)c3)s2)CC1` (stereo not drawn) [Example 36A-1], for which the IC50 was in the range of 100 to 1000 nM.

As to `Cc1cc(Nc2nccc(C(F)(F)F)n2)cc(-c2cnc(C3=CCC(C(=O)O)CC3)s2)c1` (stereo not drawn) [Example 36A-3], the half-inhibitory concentration (IC50) was under 100 nM. On the same count and under the same terms, the same measure for `Cc1cc(Nc2nccc(C(F)(F)F)n2)cc(-c2cnc(C3=CC(=O)CC3)s2)c1` [Example 36A-6]: under 100 nM; for `Cc1cc(Nc2nccc(C(F)(F)F)n2)cc(-c2cnc(C3=CC(=O)CCC3)s2)c1` [Example 36A-7]: under 100 nM; for `Cc1cc(Nc2nccc(C(F)(F)F)n2)cc(-c2cnc(C3=CC(=O)CCCC3)s2)c1` [Example 36A-9]: under 100 nM.

In the case of `COC(=O)C1CCC(c2ncc(-c3cc(C)cc(Nc4nccc(C(F)(F)F)n4)c3)s2)=CC1(C)C` (stereo not drawn) [Example 36A-11], the concentration for half-maximal inhibition (IC50) is 100 to 1000 nM. For `COC(=O)C1CC=C(c2ncc(-c3cc(C)cc(Nc4nccc(C(F)(F)F)n4)c3)s2)CC1(C)C` (stereo not drawn) [Example 36A-13], the IC50 is 100 to 1000 nM.

The same assay, now with this note: rhSYK Activity, Table 36B.
With `Cc1cc(Nc2nccc(C(F)(F)F)n2)cc(-c2cnc(C3CCNC(=O)C3)s2)c1` (stereo not drawn) [Example 36B-1], the 50% inhibitory concentration (IC50) is under 100 nM. The same measure, in the same setting: the same measure for `Cc1cc(Nc2nccc(C(F)(F)F)n2)cc(-c2cnc(C3=CCNC(=O)CC3)s2)c1` [Example 36B-2]: under 100 nM; for `Cc1cc(Nc2nccc(C(F)(F)F)n2)cc(-c2cnc(C3CCCNC(=O)C3)s2)c1` (stereo not drawn) [Example 36B-3]: under 100 nM; for `Cc1cc(Nc2nccc(C(F)(F)F)n2)cc(-c2cnc(C3CCNC(=O)CC3)s2)c1` (stereo not drawn) [Example 36B-4]: under 100 nM.

The assay is the same for the next values; noted with them: rhSYK Activity, table after Example 43.
For the molecule `[2H]C([2H])([2H])c1cc(Nc2nccc(C(F)(F)F)n2)cc(-c2cnc([C@]3(O)CC[C@H](C(=O)O)CC3)s2)c1` [Example 43-1], the half-maximal inhibitory concentration (IC50) is under 100 nM.
